Results from patent US5591755A, “Pyridinyl thiadiazolyl compounds for treating glaucoma” (Novo Nordisk A/S, priority 1990, dated 1997).
Structures can show the parent of a compound that is named as a salt. Where two headings read alike, the source gives them in different places.

How the values were obtained:
[1] = target: muscarinic acetylcholine receptors; test: inhibition of specific binding of 3H-Oxotremorine-M (3H-Oxo), in vitro; design: species or system rat (cortex from male Wistar rats); conditions: 3H-Oxo binding, rat cortex, 1.0 nM radioligand, 20 mM Hepes pH 7.4, 30 min at 25° C.
From the text: The pharmacological properties of the compounds of the invention can be illustrated by determining their capability to inhibit the specific binding of ^3 H-Oxotremorine-M (^3 H-Oxo). Birdsdall N. J. M., Hulme E. C., and Burgen A. S. V. (1980). "The Character of Muscarinic Receptors in Different Regions of the Rat Brain". Proc. Roy. Soc. London (Series B) 207,1. ^3 H-Oxo labels muscarinic receptor in the CNS (with a preference for agonist domaines of the receptors). Three different sites are labelled by ^3 H-Oxo. […] Using the present experimental conditions only the high and medium affinity sites are determined.
The inhibitory effects of compounds on ^3 H-Oxo binding reflects the affinity for muscarinic acetylcholine receptors.
All preparations are performed at 0°-4° C. unless otherwise indicated. Fresh cortex (0.1-1 g) from male Wistar rats (150-250 g) is homogenized for 5-10 s in 10 ml 20 mM Hepes pH: 7.4, with an Ultra-Turrax homogenizer. The homogenizer is rinsed with 10 ml of buffer and the combined suspension centrifuged for 15 min at 40,000×g. The pellet is washed three times with buffer. In each step the pellet is homogenized as before in 2×10 ml of buffer and centrifuged for 10 min at 40,000×g.
The final pellet is homogenized in 20 mM Hepes pH: 7.4 (100 ml per g of original tissue) and used for binding assay. Aliquots of 0.5 ml is added 25 μl of test solution and 25 μl of 3H-Oxotremorine (1.0 nM, final concentration) mixed and incubated for 30 min at 25° C. Non-specific binding is determined in triplicate using arecoline (1 μg/ml, final concentration) as the test substance. After incubation samples are added 5 ml of ice-cold buffer and poured directly onto Whatman GF/C glass fiber filters under suction and immediately washed 2 times with 5 ml of ice-cold buffer. The amount of radioactivity on the filters are determined by conventional liquid scintillation counting. Specific binding is total binding minus non specific binding.
Test substances are dissolved in 10 ml water (if necessary heated on a steambath for less than 5 minutes) at a concentration of 2.2 mg/ml.
The test value will be given as IC50 (the concentration (ng/ml) of the test substance which inhibits the specific binding of ^3 H-Oxo by 50%). [formula] where Co is specific binding in control assays and Cx is the specific binding in the test assay. (The calculations assume normal mass-action kinetics).

[2] = in vivo; cited from earlier work
[3] = system: central and peripheral muscarinic effects; conditions: cited from earlier work
[4] = target: muscarinic receptor in the CNS; conditions: read-out: affinity of sites labelled by 3H-Oxo, cited from earlier work

Structure (SMILES) | Inhibition in vitro OXO BINDING (IC50) [1] [ng/mL] | further results
CCCCCSc1nsnc1C1=CCC(C)N(C)C1.O=C(O)C(=O)O (stereo not shown) [Compound 4, 3-(3-Pentylthio-1,2,5-thiadiazol-4-yl)-1,2,5,6-tetrahydro-1,6-dimethylpyridine oxalate] | 2.0 | –
COC(=O)C1=CCCN(C)C1 [Arecoline, methyl 1-methyl-1,2,5,6-tetrahydropyridine-3-carboxylate] | – | biological half life [2]: very short biological half life; separation between central and peripheral muscarinic effects [3]: small separation between central and peripheral muscarinic effects
CCCCCOc1nsnc1C1=CCC(C)N(C)C1.O=C(O)C(=O)O (stereo not shown) [Compound 7, 3-(3-Pentyloxy-1,2,5-thiadiazol-4-yl)-1,2,5,6-tetrahydro-1,6-dimethylpyridine oxalate] | 3.3 | –
CCCCCCOc1nsnc1C1=CCC(C)N(C)C1.O=C(O)C(=O)O (stereo not shown) [Compound 6, 3-(3-Hexyloxy-1,2,5-thiadiazol-4-yl)-1,2,5,6-tetrahydro-1,6-dimethylpyridine oxalate] | 2.4 | –
CCCCCCSc1nsnc1C1=CCC(C)N(C)C1.O=C(O)C(=O)O (stereo not shown) [Compound 3, 3-(3-Hexylthio-1,2,5-thiadiazol-4-yl)-1,2,5,6-tetrahydro-1,6-dimethylpyridine oxalate] | 4.5 | –
C[N+](C)(C)CC#CCN1CCCC1=O [Compound 3H-Oxo, ^3 H-Oxotremorine-M] | – | Kd ([4]; first of three sites (high affinity)): 1.8 nM; Kd ([4]; second of three sites (medium affinity)): 20 nM; Kd ([4]; third of three sites (not determined under the present conditions)): 3000 nM
CC1CC=C(c2nsnc2SCc2ccc(C#N)cc2)CN1C.O=C(O)C(=O)O (stereo not shown) [Compound 5, 3-(3-(4-Cyanobenzylthio)-1,2,5-thiadiazol-4-yl)-1,2,5,6-tetrahydro-1,6-dimethylpyridine oxalate] | 1.9 | –
COc1nsnc1C1=C(C)CCN(C)C1.O=C(O)/C=C/C(=O)O [Compound 1, 1,2,5,6-Tetrahydro-3-(4-methoxy-1,2,5-thiadiazol-3-yl)-1,4-dimethylpyridine fumarate] | 108 | –
CC1CC=C(c2nsnc2SCCCCC#N)CN1C.O=C(O)C(=O)O (stereo not shown) [Compound 8, 3-(3-(4-Cyanobutylthio)-1,2,5-thiadiazol-4-yl)-1,2,5,6-tetrahydro-1,6-dimethylpyridine oxalate] | 0.69 | –
CCCCCCOc1nsnc1C1=C(C)CCN(C)C1 [Compound 2, 3-(4-Hexyloxy-1,2,5-thiadiazol-3-yl)-1,2,5,6-tetrahydrohydro-1,4-dimethylpyridine oxalate] | 18 | –
